Reference: patent US20090118332A1, “Therapeutic Agents - 551” (AstraZeneca AB, priority 2006, published 2009)

Molecular target: T1, human Fatty Acid Synthase (Homo sapiens, UniProt P49327)
T1 construct: made in house
Assay: Human FAS enzyme assay (decrease in NADPH fluorescence)
Assay type: biochemical
Settings: for inhibition at 100 µM: % inhibition at a concentration of 100 μmolar
Outline: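 In-house human FAS was preincubated with compound and NADPH for 15 min at room temperature in 0.1 M Tris pH 7.5 with EDTA, glutathione and BSA. Malonyl CoA and acetyl CoA (500 μM and 150 μM in the added mix) were then added for 60 min. IC50 came from time-zero-subtracted NADPH fluorescence (340/460 nm).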

T1 sequence (P49327 whole entry): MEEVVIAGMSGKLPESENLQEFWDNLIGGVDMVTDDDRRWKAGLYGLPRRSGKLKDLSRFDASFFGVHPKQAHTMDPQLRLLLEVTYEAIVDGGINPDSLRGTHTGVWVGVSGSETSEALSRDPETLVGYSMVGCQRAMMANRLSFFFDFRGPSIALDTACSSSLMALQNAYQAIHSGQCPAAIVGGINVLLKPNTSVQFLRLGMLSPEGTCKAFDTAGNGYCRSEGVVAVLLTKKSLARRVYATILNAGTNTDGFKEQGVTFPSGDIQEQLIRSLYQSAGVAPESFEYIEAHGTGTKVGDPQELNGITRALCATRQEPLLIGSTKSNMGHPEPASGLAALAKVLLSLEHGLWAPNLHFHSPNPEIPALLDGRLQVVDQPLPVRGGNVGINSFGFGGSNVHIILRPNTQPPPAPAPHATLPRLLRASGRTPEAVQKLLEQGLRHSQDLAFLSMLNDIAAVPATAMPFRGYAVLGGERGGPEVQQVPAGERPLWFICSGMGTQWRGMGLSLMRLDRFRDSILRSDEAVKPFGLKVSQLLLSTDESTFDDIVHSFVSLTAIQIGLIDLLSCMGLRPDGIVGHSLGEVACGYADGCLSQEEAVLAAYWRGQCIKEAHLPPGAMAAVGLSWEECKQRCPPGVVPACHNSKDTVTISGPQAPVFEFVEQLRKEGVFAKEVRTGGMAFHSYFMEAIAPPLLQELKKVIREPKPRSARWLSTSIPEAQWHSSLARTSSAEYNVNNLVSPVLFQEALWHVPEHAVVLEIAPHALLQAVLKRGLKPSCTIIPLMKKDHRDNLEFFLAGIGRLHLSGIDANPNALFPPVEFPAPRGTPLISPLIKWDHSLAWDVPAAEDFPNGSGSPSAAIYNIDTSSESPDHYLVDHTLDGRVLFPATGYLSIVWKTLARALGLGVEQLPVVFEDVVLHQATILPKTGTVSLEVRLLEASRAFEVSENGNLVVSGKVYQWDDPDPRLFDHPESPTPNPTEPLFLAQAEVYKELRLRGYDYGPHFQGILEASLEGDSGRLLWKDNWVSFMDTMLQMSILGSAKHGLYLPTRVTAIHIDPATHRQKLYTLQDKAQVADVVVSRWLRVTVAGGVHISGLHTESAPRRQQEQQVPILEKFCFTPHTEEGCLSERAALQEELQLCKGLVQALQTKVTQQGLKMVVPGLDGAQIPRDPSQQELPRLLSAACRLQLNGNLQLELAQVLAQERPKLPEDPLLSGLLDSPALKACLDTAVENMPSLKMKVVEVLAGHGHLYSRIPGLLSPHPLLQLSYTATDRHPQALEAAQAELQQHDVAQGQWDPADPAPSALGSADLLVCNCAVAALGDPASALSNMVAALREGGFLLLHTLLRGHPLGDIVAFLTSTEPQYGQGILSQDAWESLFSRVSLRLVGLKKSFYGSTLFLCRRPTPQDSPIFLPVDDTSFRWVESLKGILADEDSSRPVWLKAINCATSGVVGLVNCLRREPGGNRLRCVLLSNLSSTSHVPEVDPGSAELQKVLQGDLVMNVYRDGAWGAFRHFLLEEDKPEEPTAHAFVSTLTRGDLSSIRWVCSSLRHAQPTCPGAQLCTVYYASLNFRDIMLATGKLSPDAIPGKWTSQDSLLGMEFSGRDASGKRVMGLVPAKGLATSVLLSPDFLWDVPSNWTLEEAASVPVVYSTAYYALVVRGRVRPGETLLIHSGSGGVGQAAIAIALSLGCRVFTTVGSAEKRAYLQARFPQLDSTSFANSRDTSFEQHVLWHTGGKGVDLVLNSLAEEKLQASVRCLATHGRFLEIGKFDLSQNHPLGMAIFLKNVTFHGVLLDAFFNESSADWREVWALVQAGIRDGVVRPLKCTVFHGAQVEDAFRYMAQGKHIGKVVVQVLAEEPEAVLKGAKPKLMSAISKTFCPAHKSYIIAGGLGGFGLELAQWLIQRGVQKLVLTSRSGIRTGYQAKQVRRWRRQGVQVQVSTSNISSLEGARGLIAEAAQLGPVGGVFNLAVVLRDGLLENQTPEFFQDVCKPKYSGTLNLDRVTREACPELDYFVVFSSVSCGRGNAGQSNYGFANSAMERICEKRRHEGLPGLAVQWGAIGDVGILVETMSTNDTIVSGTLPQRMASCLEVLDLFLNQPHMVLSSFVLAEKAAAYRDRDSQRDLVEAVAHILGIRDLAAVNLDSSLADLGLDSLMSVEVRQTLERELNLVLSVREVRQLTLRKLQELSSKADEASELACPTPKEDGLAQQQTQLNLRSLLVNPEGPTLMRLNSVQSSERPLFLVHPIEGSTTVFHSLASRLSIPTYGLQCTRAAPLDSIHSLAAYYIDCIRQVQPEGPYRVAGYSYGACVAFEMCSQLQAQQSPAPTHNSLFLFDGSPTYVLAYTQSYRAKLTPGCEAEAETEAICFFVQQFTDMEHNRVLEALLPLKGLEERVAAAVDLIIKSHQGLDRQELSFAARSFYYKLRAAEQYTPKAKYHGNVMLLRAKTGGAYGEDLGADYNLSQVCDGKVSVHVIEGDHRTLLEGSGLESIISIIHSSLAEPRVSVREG

SMILES	inhibition at 100 µM [%]	IC50, inhibition of human Fatty Acid Synthase (FAS enzyme assay, IC50 from fitted sigmoid curves)
Cc1ccc(NC(=O)NCc2ccncc2)cc1C(=O)N1CCC(c2ccc(C#N)cc2)CC1 [Example 379, 1-[3-[4-(4-cyanophenyl)piperidine-1-carbonyl]-4-methylphenyl]-3-(pyridin-4-ylmethyl)urea]	73.3	–
Cc1ccc(C(=O)N2CCC(c3ccc(C#N)cc3)CC2)cc1NC(=O)N1CCCC1 [Example 10, N-[5-[4-(4-cyanophenyl)piperidine-1-carbonyl]-2-methyl-phenyl]pyrrolidine-1-carboxamide]	83.5	–
Cc1ccc(C(=O)N2CCC(c3ccc(C#N)cc3)CC2)cc1NC(=O)NC1CCN(S(C)(=O)=O)CC1 [Example 281, 1-[5-[4-(4-cyanophenyl)piperidine-1-carbonyl]-2-methyl-phenyl]-3-(1-methylsulfonyl-4-piperidyl)urea]	99.7	–
Cc1ccc(C(=O)N2CCC(c3ccc(C#N)cc3)CC2)cc1NC(=O)N(C)C1CCN(C)CC1 [Example 393, 3-[5-[4-(4-cyanophenyl)piperidine-1-carbonyl]-2-methylphenyl]-1-methyl-1-(1-methylpiperidin-4-yl)urea]	65.8	–
Cc1ccc(C(=O)N2CCC(c3ccc(C#N)cc3)CC2)cc1NC(=O)NC1CN(C(=O)OC(C)(C)C)C1 [Example 97, tert-butyl 3-[[5-[4-(4-cyanophenyl)piperidine-1-carbonyl]-2-methyl-phenyl]carbamoylamino]azetidine-1-carboxylate]	95.5	–
CCCN1CCC(NC(=O)Nc2cc(C(=O)N3CCC(c4ccc(C#N)cc4)CC3)ccc2C)CC1 [Example 79, 3-[5-[4-(4-cyanophenyl)piperidine-1-carbonyl]-2-methyl-phenyl]-1-(1-propyl-4-piperidyl)urea]	95.4	–
Cc1ccc(C(=O)N2CCC(c3ccc(C#N)cc3)CC2)cc1NC(=O)N[C@H]1CCN(C(=O)OC(C)(C)C)C1 [Example 210, tert-butyl (3S)-3-[[5-[4-(4-cyanophenyl)piperidine-1-carbonyl]-2-methyl-phenyl]carbamoylamino]pyrrolidine-1-carboxylate]	97.4	–
Cc1ccc(C(=O)N2CCC(c3ccc(C#N)cc3)CC2)cc1NC(=O)N1CCC(S(C)(=O)=O)C1 (stereo not shown) [Example 344, N-[5-[4-(4-cyanophenyl)piperidine-1-carbonyl]-2-methyl-phenyl]-3-methylsulfonyl-pyrrolidine-1-carboxamide]	112	–
Cc1ccc(C(=O)N2CCC(c3ccc(C#N)cc3)CC2)cc1NC(=O)N[C@H]1CCCC[C@@H]1NS(C)(=O)=O (relative stereo) [Example 315, 1-[5-[4-(4-cyanophenyl)piperidine-1-carbonyl]-2-methyl-phenyl]-3-[(trans)-2-methanesulfonamidocyclohexyl]urea]	104	–
CNC(=O)Nc1ccc(C)c(C(=O)N2CCC(c3ccc(C#N)cc3)CC2)c1 [Example 18, 3-[3-[4-(4-cyanophenyl)piperidine-1-carbonyl]-4-methyl-phenyl]-1-methyl-urea]	75.9	–
Cc1ccc(C(=O)N2CCC(c3ccc(C#N)cc3)CC2)cc1NC(=O)N[C@@H]1CCC(=O)NC1 [Example 265, 1-[5-[4-(4-cyanophenyl)piperidine-1-carbonyl]-2-methyl-phenyl]-3-[(3R)-6-oxo-3-piperidyl]urea]	90.6	–
COC(=O)[C@@H](NC(=O)Nc1cc(C(=O)N2CCC(c3ccc(C#N)cc3)CC2)ccc1C)c1ccccc1 [Methyl (2S)-2-[[5-[4-(4-cyanophenyl)piperidine-1-carbonyl]-2-methylphenyl]carbamoylamino]-2-phenylacetate]	–	do not have IC50s in the range of about 0.001 μM to about 30 μM

Second part, led by results:

inhibition at 100 µM [%]	SMILES	IC50, inhibition of human Fatty Acid Synthase (FAS enzyme assay, IC50 from fitted sigmoid curves)
66.3	Cc1ccc(C(=O)N2CCC(c3ccc(C#N)cc3)CC2)cc1NC(=O)N(C)CC(=O)NC(C)C [Example 398, 2-[[5-[4-(4-cyanophenyl)piperidine-1-carbonyl]-2-methylphenyl]carbamoyl-methylamino]-N-propan-2-ylacetamide]	–
89.2	CNC(=O)CCNC(=O)Nc1cc(C(=O)N2CCC(c3ccc(C#N)cc3)CC2)ccc1C [Example 179, 3-[[5-[4-(4-cyanophenyl)piperidine-1-carbonyl]-2-methyl-phenyl]carbamoylamino]-N-methyl-propanamide]	–
86	Cc1ccc(C(=O)N2CCC(c3ccc(C#N)cc3)CC2)cc1NC(=O)NCCCNC(=O)C(C)C [Example 274, N-[3-[[5-[4-(4-cyanophenyl)piperidine-1-carbonyl]-2-methyl-phenyl]carbamoylamino]propyl]-2-methyl-propanamide]	–
91.8	Cc1ccc(C(=O)N2CCC(c3ccc(C#N)cc3)CC2)cc1NC(=O)NCCN [Example 103, 3-(2-aminoethyl)-1-[5-[4-(4-cyanophenyl)piperidine-1-carbonyl]-2-methyl-phenyl]urea]	–
68.3	CC(=O)N(C)CCNC(=O)Nc1cc(C(=O)N2CCC(c3ccc(C#N)cc3)CC2)ccc1C [Example 120, N-[2-[[5-[4-(4-cyanophenyl)piperidine-1-carbonyl]-2-methyl-phenyl]carbamoylamino]ethyl]-N-methyl-acetamide]	–
95.9	Cc1ccc(C(=O)N2CCC(c3ccc(C#N)cc3)CC2)cc1NC(=O)NCCNC(=O)c1ccccn1 [Example 91, N-[2-[[5-[4-(4-cyanophenyl)piperidine-1-carbonyl]-2-methyl-phenyl]carbamoylamino]ethyl]pyridine-2-carboxamide]	–
95.9	Cc1ccc(C(=O)N2CCC(c3ccc(C#N)cc3)CC2)cc1NC(=O)NCCCN1CCCCCC1=O [Example 178, 1-[5-[4-(4-cyanophenyl)piperidine-1-carbonyl]-2-methyl-phenyl]-3-[3-(2-oxoazepan-1-yl)propyl]urea]	–
93.9	Cc1ccc(C(=O)N2CCC(c3ccc(C#N)cc3)CC2)cc1NC(=O)NC1CN(S(C)(=O)=O)C1 [Example 302, 1-[5-[4-(4-cyanophenyl)piperidine-1-carbonyl]-2-methyl-phenyl]-3-(1-methylsulfonylazetidin-3-yl)urea]	–
84.8	COc1ccccc1CCNC(=O)Nc1cc(C(=O)N2CCC(c3ccc(C#N)cc3)CC2)ccc1C [Example 61, 1-[5-[4-(4-cyanophenyl)piperidine-1-carbonyl]-2-methyl-phenyl]-3-[2-(2-methoxyphenyl)ethyl]urea]	–
93.2	CC(=O)NCCNC(=O)Nc1cc(C(=O)N2CCC(c3ccc(C#N)cc3)CC2)ccc1C [Example 55, N-[2-[[5-[4-(4-cyanophenyl)piperidine-1-carbonyl]-2-methyl-phenyl]carbamoylamino]ethyl]acetamide]	–
75.5	Cc1ccc(C(=O)N2CCC(c3ccc(C#N)cc3)CC2)cc1NC(=O)N1CCC1 [Example 346, N-[5-[4-(4-cyanophenyl)piperidine-1-carbonyl]-2-methyl-phenyl]azetidine-1-carboxamide]	–
88.8	CC(=O)NC1CN(C(=O)Nc2cc(C(=O)N3CCC(c4ccc(C#N)cc4)CC3)ccc2C)C1 [Example 312, 3-acetamido-N-[5-[4-(4-cyanophenyl)piperidine-1-carbonyl]-2-methyl-phenyl]azetidine-1-carboxamide]	–
89.9	Cc1ccc(C(=O)N2CCC(c3ccc(C#N)cc3)CC2)cc1NC(=O)NCC(=O)N(C)C [Example 238, 2-[[5-[4-(4-cyanophenyl)piperidine-1-carbonyl]-2-methyl-phenyl]carbamoylamino]-N,N-dimethyl-acetamide]	–
